Species on record: Rattus norvegicus
Experiment: Inhibition of rat recombinant geranylgeranyltransferase type I expressed in Escherichia coli assessed as residual enzyme activity for geranylgeranylation of K-Ras4B at 50 uM incubated for 30 mins in presence of [3H]GGPP by scintillation counting assay relative to control

Row | Activity [%] | Compound
1 | 71.2 | Cc1ccc(S(=O)(=O)N2[C@@H](c3cccc(Br)c3)C(C(=O)O)=CC[C@H]2c2ccccc2F)cc1
2 | 67.7 | COc1ccc([C@@H]2CC=C(C(=O)O)[C@H](c3ccc(F)cc3)N2S(=O)(=O)c2ccccc2)cc1
3 | 99.7 | COc1ccc([C@@H]2C=CCCN2S(=O)(=O)c2ccc(C)cc2)cc1
4 | 83.2 | COc1ccc([C@@H]2CC=C(C(=O)O)[C@H](c3ccc(Cl)cc3)N2S(=O)(=O)c2ccc(C)cc2)cc1OC
5 | 44.9 | COc1cc([C@@H]2C[C@@H](SCc3ccc(Cl)cc3)[C@H](C(=O)O)CN2S(=O)(=O)c2ccc(C)cc2)cc(OC)c1OC
6 | 55.3 | COc1cccc([C@@H]2CC=C(C(=O)O)[C@H](c3cccc(Br)c3)N2S(=O)(=O)c2ccc(C)cc2)c1
7 | 85 | COc1cccc([C@@H]2CC=C(C(C)=O)CN2S(=O)(=O)c2ccc(C)cc2)c1
8 | 53.2 | COc1ccc([C@@H]2CC=C(C(=O)O)[C@H](c3cccc(Cl)c3)N2S(=O)(=O)c2ccc(Cl)cc2)cc1
9 | 83.6 | CCCCCCS[C@@H]1C[C@@H](c2ccc(OC)cc2)N(S(=O)(=O)c2ccc(C)cc2)C[C@H]1C(=O)O
10 | 90.4 | Cc1ccc([C@H]2C(C(=O)O)=CC[C@@H](c3ccccc3)N2S(C)(=O)=O)cc1
11 | 75.7 | CCCS[C@@H]1C[C@@H](c2ccccc2)N(S(=O)(=O)c2ccc(C)cc2)C[C@H]1C(=O)O
12 | 96.2 | CCCCCCS[C@@H]1C[C@@H](c2ccc(OC)cc2)N(S(=O)(=O)c2ccccc2)C[C@H]1C(=O)O
13 | 70.1 | Cc1ccc(S(=O)(=O)N2[C@@H](c3cccc(F)c3)C(C(=O)O)=CC[C@H]2c2ccc(F)cc2)cc1
14 | 77.3 | Cc1ccc([C@@H]2CC=C(C(=O)O)[C@H](c3cccc(F)c3)N2S(=O)(=O)c2ccc(C)cc2)cc1
15 | 88.3 | Cc1ccc(S(=O)(=O)N2[C@@H](c3cccc(F)c3)C(C(=O)O)=CC[C@H]2c2ccc(C#N)cc2)cc1
16 | 86.3 | CCCCS[C@@H]1C[C@@H](c2ccccc2F)N(S(=O)(=O)c2ccc(C)cc2)C[C@H]1C(=O)O
17 | 59 | COc1ccc([C@@H]2CC=C(C(=O)O)[C@H](c3cccc(Br)c3)N2S(=O)(=O)c2ccc(C)cc2)cc1OC
18 | 64.9 | Cc1ccc([C@@H]2CC=C(C(=O)O)[C@H](c3cccc(F)c3)N2S(=O)(=O)c2ccccc2)cc1
19 | 39.1 | Cc1ccc(S(=O)(=O)N2[C@@H](c3cccc(Br)c3)C(C(=O)O)=CC[C@H]2c2cccc(C)c2)cc1
20 | 67.3 | COc1ccc([C@@H]2CC=C(C(=O)O)[C@H](c3cccc(C)c3)N2S(=O)(=O)c2ccc(C)cc2)cc1
21 | 74.5 | CCCCS[C@@H]1C[C@@H](c2ccc(OC)cc2)N(S(=O)(=O)c2ccc(C)cc2)C[C@H]1C(=O)O
22 | 80.8 | COc1ccc(S[C@@H]2C[C@@H](c3ccc(OC)cc3)N(S(=O)(=O)c3ccc(Cl)cc3)C[C@H]2C(=O)O)cc1
23 | 75.1 | Cc1ccc(S(=O)(=O)N2[C@@H](c3cccc(Br)c3)C(C(=O)O)=CC[C@H]2c2ccc3c(c2)OCO3)cc1
24 | 91.9 | CC(=O)C1=CC[C@@H](c2ccc(Cl)cc2)N(S(=O)(=O)c2ccccc2C)C1
25 | 87.5 | COc1ccc([C@@H]2CC=C(C(=O)O)[C@H](c3cccc(F)c3)N2S(=O)(=O)c2ccc(C)cc2)cc1
26 | 107 | COc1ccc([C@@H]2C[C@@H](Sc3ccc(Cl)cc3)[C@H](C(=O)O)CN2S(=O)(=O)c2ccc(C)cc2)cc1OC

Row | Activity [%] | Compound
27 | 73.5 | Cc1ccc(S(=O)(=O)N2[C@@H](c3ccc(Br)cc3)C(C(=O)O)=CC[C@H]2c2cccc(C)c2)cc1
28 | 78 | Cc1ccc([C@H]2C(C(=O)O)=CC[C@@H](c3ccc(C)cc3)N2S(C)(=O)=O)cc1
29 | 111 | COC(=O)c1ccccc1S(=O)(=O)N1[C@@H](c2ccc(C(C)(C)C)cc2)C(C(=O)O)=CC[C@H]1c1ccc(C)cc1
30 | 76.2 | Cc1ccc(S(=O)(=O)N2[C@@H](c3cccc(F)c3)C(C(=O)O)=CC[C@H]2c2ccc(Cl)cc2)cc1
31 | 92.4 | Cc1ccc(S[C@@H]2C[C@@H](c3ccc(C)cc3)N(S(=O)(=O)c3ccc(Cl)cc3)C[C@H]2C(=O)O)cc1
32 | 50.9 | Cc1ccc(S(=O)(=O)N2[C@@H](c3ccc(F)cc3)C(C(=O)O)=CC[C@H]2c2ccc(C(C)C)cc2)cc1
33 | 91.8 | COc1ccc([C@@H]2CC=C(C(=O)O)[C@H](c3cccc(F)c3)N2S(=O)(=O)c2ccccc2)cc1
34 | 88.9 | CCCS[C@@H]1C[C@@H](c2ccc(OC)cc2)N(S(=O)(=O)c2ccc(C)cc2)C[C@H]1C(=O)O
35 | 62.6 | Cc1ccc(S(=O)(=O)N2[C@@H](c3ccc(Br)cc3)C(C(=O)O)=CC[C@H]2c2ccc(F)cc2)cc1
36 | 91.1 | CCCS[C@@H]1C[C@@H](c2ccccc2F)N(S(=O)(=O)c2ccc(C)cc2)C[C@H]1C(=O)O
37 | 60.4 | CC(C)(C)c1ccc([C@H]2C(C(=O)O)=CC[C@@H](c3ccc(Cl)cc3)N2S(C)(=O)=O)cc1
38 | 70.6 | Cc1ccc(S(=O)(=O)N2[C@@H](c3ccc(Br)cc3)C(C(=O)O)=CC[C@H]2c2ccc(C#N)cc2)cc1
39 | 83.7 | Cc1ccc(S(=O)(=O)N2[C@@H](c3ccc(Br)cc3)C(C(=O)O)=CC[C@H]2c2ccc(C(C)C)cc2)cc1
40 | 60.3 | CS(=O)(=O)N1[C@@H](c2cccc(Cl)c2)C(C(=O)O)=CC[C@H]1c1ccc(Cl)cc1
41 | 71.9 | CCc1ccc([C@@H]2C[C@@H](SCCC(C)C)[C@H](C(=O)O)CN2S(=O)(=O)c2ccc(C)cc2)cc1
42 | 82.1 | CS(=O)(=O)N1[C@@H](c2ccc(Cl)cc2)C(C(=O)O)=CC[C@H]1c1ccccc1
43 | 90.4 | COc1ccc([C@@H]2CC=C(C(=O)O)[C@H](c3ccc(C(C)(C)C)cc3)N2S(=O)(=O)c2ccc(C)cc2)cc1OC
44 | 83.6 | CS(=O)(=O)N1[C@@H](c2ccc(Br)cc2)C(C(=O)O)=CC[C@H]1c1ccccc1
45 | 78.8 | Cc1ccc(S(=O)(=O)N2[C@@H](c3ccc(C(C)(C)C)cc3)C(C(=O)O)=CC[C@H]2c2cccc(Cl)c2)cc1
46 | 88.3 | Cc1ccc(S(=O)(=O)N2[C@@H](c3ccc(C(C)(C)C)cc3)C(C(=O)O)=CC[C@H]2c2ccc(C(C)C)cc2)cc1
47 | 88.8 | Cc1ccc(S[C@@H]2C[C@@H](c3cccc(Cl)c3)N(S(=O)(=O)c3ccc(C)cc3)C[C@H]2C(=O)O)cc1
48 | 86.8 | Cc1ccc(S(=O)(=O)N2C[C@@H](C(=O)O)[C@H](SCC(C)C)C[C@H]2c2ccc(Cl)cc2)cc1
49 | 69.9 | CCCCCCS[C@@H]1C[C@@H](c2ccc(C)cc2)N(S(=O)(=O)c2ccccc2C)C[C@H]1C(=O)O
50 | 81.8 | Cc1ccc(S(=O)(=O)N2[C@@H](c3cccc(F)c3)C(C(=O)O)=CC[C@H]2c2cccs2)cc1
51 | 92.3 | COc1cc([C@@H]2CC=C(C(C)=O)CN2S(=O)(=O)c2ccc(C)cc2)cc(OC)c1OC
52 | 78.9 | COc1ccc([C@@H]2C[C@@H](SCc3ccc(C(C)(C)C)cc3)[C@H](C(=O)O)CN2S(=O)(=O)c2ccc(C)cc2)cc1OC

Row | Activity [%] | Compound
53 | 63.1 | CCc1ccc([C@@H]2C[C@@H](SCc3ccccc3)[C@H](C(=O)O)CN2S(=O)(=O)c2ccc(C)cc2)cc1
54 | 32.6 | O=C(O)C1=CC[C@@H](c2ccc(Cl)cc2)N(S(=O)(=O)c2ccc(Cl)cc2)[C@H]1c1ccc(Br)cc1
55 | 82.7 | COc1ccc(S[C@@H]2C[C@@H](c3ccc(C)cc3)N(S(=O)(=O)c3ccc(Cl)cc3)C[C@H]2C(=O)O)cc1
56 | 81.7 | Cc1ccc(S(=O)(=O)N2C[C@@H](C(=O)O)[C@H](SCC(C)C)C[C@H]2c2ccc3c(c2)OCO3)cc1
57 | 105 | Cc1ccc([C@@H]2C[C@@H](Sc3ccc(Cl)cc3)[C@H](C(=O)O)CN2S(C)(=O)=O)cc1
58 | 73.4 | Cc1ccc(S(=O)(=O)N2[C@@H](c3ccc(Cl)cc3)C(C(=O)O)=CC[C@H]2c2ccc3c(c2)OCO3)cc1
59 | 63.5 | Cc1ccc(S(=O)(=O)N2[C@@H](c3ccc(Cl)cc3)C(C(=O)O)=CC[C@H]2c2cccc(F)c2)cc1
60 | 55.3 | COc1ccc([C@@H]2C[C@@H](Sc3ccc(Cl)cc3)[C@H](C(=O)O)CN2S(=O)(=O)c2ccc(C)cc2)cc1
61 | 50.9 | Cc1ccc([C@@H]2CC=C(C(=O)O)[C@H](c3ccc(F)cc3)N2S(=O)(=O)c2ccccc2C)cc1
62 | 50.2 | CS(=O)(=O)N1[C@@H](c2ccc(F)cc2)C(C(=O)O)=CC[C@H]1c1ccc(Cl)cc1
63 | 62.9 | CCCCCS[C@@H]1C[C@@H](c2ccc(C)cc2)N(S(=O)(=O)c2ccccc2C)C[C@H]1C(=O)O
64 | 57.9 | Cc1ccc(S(=O)(=O)N2[C@@H](c3ccc(Br)cc3)C(C(=O)O)=CC[C@H]2c2cccc(Br)c2)cc1
65 | 94.1 | C=CCS[C@@H]1C[C@@H](c2ccc(C)cc2)N(S(=O)(=O)c2ccc(C)cc2)C[C@H]1C(=O)O
66 | 61.4 | CCCCCS[C@@H]1C[C@@H](c2ccccc2F)N(S(=O)(=O)c2ccc(C)cc2)C[C@H]1C(=O)O
67 | 77.5 | CCCCCCS[C@@H]1C[C@@H](c2ccccc2)N(S(=O)(=O)c2ccc(C)cc2)C[C@H]1C(=O)O
68 | 61.1 | CCOc1ccc([C@@H]2C[C@@H](Sc3ccccc3)[C@H](C(=O)O)CN2S(=O)(=O)c2ccc(C)cc2)cc1
69 | 96.7 | COc1ccc([C@@H]2C[C@@H](SCCC(C)C)[C@H](C(=O)O)CN2S(=O)(=O)c2ccccc2)cc1
70 | 61.3 | COc1ccc([C@@H]2CC=C(C(=O)O)[C@H](c3cccc(C)c3)N2S(=O)(=O)c2ccccc2C)cc1
71 | 69.8 | COc1ccc([C@@H]2CC=C(C(=O)O)[C@H](c3ccc(F)cc3)N2S(=O)(=O)c2ccc(C)cc2)cc1OC
72 | 105 | COc1cc([C@@H]2C[C@@H](SC3CCCC3)[C@H](C(=O)O)CN2S(=O)(=O)c2ccc(C)cc2)cc(OC)c1OC
73 | 78.9 | CCOc1ccc([C@@H]2CC=C(C(=O)O)[C@H](c3cccc(Cl)c3)N2S(=O)(=O)c2ccc(C)cc2)cc1
74 | 83.8 | COc1ccc([C@@H]2CC=C(C(C)=O)CN2S(=O)(=O)c2ccc(C)cc2)cc1OC
75 | 83.6 | CCS[C@@H]1C[C@@H](c2ccc(C)cc2)N(S(=O)(=O)c2ccccc2C)C[C@H]1C(=O)O
76 | 66 | CCCCCS[C@@H]1C[C@@H](c2ccc3c(c2)OCO3)N(S(=O)(=O)c2ccc(C)cc2)C[C@H]1C(=O)O
77 | 92.4 | Cc1ccc(S[C@@H]2C[C@@H](c3ccc(C)cc3)N(S(=O)(=O)c3ccccc3C)C[C@H]2C(=O)O)cc1

From ChEMBL document CHEMBL4421722, “Inhibitors of protein prenyltransferases” (2013)
